Assay results as given in patent US20250270218A1, “IMIDAZ0[1,2-A]PYRIMIDINE-5(1 H)-ONES AS WRN INHIBITORS” (Incyte Corporation, priority 2023, published 2025).

How the values were obtained:
[1] = molecular target: T1, WRN (Homo sapiens, UniProt Q14191); assay: WRN ATPase activity assay (ADP-Glo); format: biochemical; conditions: 1-hr pre-incubation with enzyme; 25 nM forked dsDNA, 100 μM ATP, 1 nM WRN; geometric mean of at least 2 replicates
T1 construct: A His-tagged construct of WRN (AA S2-S1235) was produced and used for the ATPase assay; made in house; host or cells: Sf9 insect cells (baculovirus, pFastBac1)
Method: Compounds of the Examples were tested for WRN ATPase activity. WRN ATPase activity catalyzes ATP hydrolysis to produce ADP and phosphate. DNA encoding the target protein, 6×HIS-TEV-WRN-517-945, was produced, cloned, and transfected as detailed in Example D. The amount of ADP produced was measured using ADP-Glo™ Kinase Assay kit from Promega Corporation in a Greiner white regular volume 384 wells assay plate (Greiner #781075). Data was normalized to a standard curve generated using various ADP concentrations and the corresponding luminescent signal intensities at each concentration. The assay conditions were optimized for enzyme concentration (WRN), substrate concentrations (ATP & dsDNA), and the linearity of the ATPase reaction, in the following assay buffer: 50 mM Tris-HCl, pH-7.5, 2 mM MgCl2, 50 mM NaCl, 1 mM EGTA, 0.01% P-20, 0.05% BSA, and 2 mM DTT prepared with nuclease free water.
A serial dilution (1:3 scheme) of the compounds were prepared in neat DMSO, with 100 nL of the compounds dispensed in the 384 wells assay plate. A 1-hr pre-incubation of the compounds with enzyme was included. A His-tagged construct of WRN (AA S2-S1235) was produced and used for the ATPase assay. Maximum inhibition control wells were set up with the addition of only assay buffer, and no inhibition control wells were set up with neat DMSO without test compounds. The reaction was initiated by addition of 5 μL substrate mix (200 μM ultrapure ATP, and 50 nM dsDNA prepared in assay buffer) and incubated at 25° C. for 35 min. A forked dsDNA oligomer substrate was prepared by annealing equal amounts of oligo GPat-1 ([BHQ2][…]) and oligo GPat-2 ([…][TAM]) and was used as dsDNA substrate for WRN ATPase assay. A typical ATPase reaction consists of 25 nM forked dsDNA, 100 μM ATP, and 1 nM WRN prepared in assay buffer. The WRN ATPase reaction was stopped by the addition of 5 μL of ADP-Glo Reagent from ADP-Glo™ Kinase Assay kit and incubated for 40 min to deplete the unreacted ATP. Afterwards, 5 μL of Kinase Detection Reagent from the ADP-Glo™ Kinase Assay kit was added and incubated for 1 hr for the development of luminescence signal.
Luminesce signals were measured on BMG PHERAstar FSX using luminescence protocol. Data analysis was carried out using Genedata software following % of control normalization. Fitting parameters include dose response IC50, Hill slope (n), maximum inhibition (S∞), and minimum inhibition (S0). The reported IC50 values for compounds in this invention are the geometric means of at least 2 independent replicates.

[2] = molecular target: T1, WRN; assay: WRN Helicase activity assay (fluorescence DNA unwinding); format: biochemical; conditions: 1-hr pre-incubation with enzyme; 25 nM forked dsDNA, 100 μM ATP, 1 nM WRN; geometric mean of at least 2 replicates
Method: Compounds of the examples were tested for WRN helicase activity. DNA encoding the target protein, 6×HIS-TEV-WRN-517-945, was produced, cloned, and transfected as detailed in Example D. To determine the inhibitory properties of the compounds, a 384 wells plate-based Helicase assay was set up to measure the extent of DNA unwinding (Helicase) activity of WRN. The WRN Helicase assay was designed to measure increase in fluorescence signal using a fluorescence based, donor-quencher paired forked dsDNA oligomer substrate (custom synthesis from Sigma-Aldrich) prepared by annealing equal amounts of oligo GPat-1 ([BHQ2][…]) and oligo GPat-2 ([…][TAM]). Continuous measurement of fluorescent signal was used to optimize the buffer conditions, concentration of enzyme (WRN), concentration of substrates (ATP & dsDNA), and the linearity of the Helicase reaction. All solutions were prepared in the following assay buffer: 50 mM Tris-HCl, pH-7.5, 2 mM MgCl2, 50 mM NaCl, 1 mM EGTA, 0.01% P-20, 0.05% BSA, and 2 mM DTT prepared with nuclease free water.
A serial dilution (1:3 scheme) of the compounds was prepared in neat DMSO and 100 nL of the compounds was dispensed in the Greiner black low volume (Greiner #784076) 384 wells assay plate. A 1-hr pre-incubation of the compounds with enzyme was included. A His-tagged construct of WRN (AA S2-S1235) was produced and used for the ATPase assay. Maximum inhibition control wells were set up with the addition of only assay buffer, and no inhibition control wells were set up with neat DMSO without test compounds. The reaction was initiated by addition of 5 μL substrate mix (200 μM ultrapure ATP, and 50 nM dsDNA prepared in assay buffer) and incubated at 25° C. for 35 min. A typical Helicase reaction consists of 25 nM forked dsDNA, 100 μM ATP, and 1 nM WRN prepared in assay buffer. The WRN Helicase reaction was quenched by the addition of 5 μL ‘STOP’ solution containing 100 mM EDTA (final EDTA concentration 33.33 mM) prepared in assay buffer. The plates were read on BMG PHERAstar FSX using 540/590 module to measure an increase of fluorescence. Data analysis was carried out using the Genedata software following % of control normalization. Fitting parameters include dose response IC50, Hill slope (n), maximum inhibition (S∞), and minimum inhibition (S0). The reported IC50 values for compounds in this invention are the geometric means of at least 2 independent replicates.

T1 sequence (Q14191 2-1235): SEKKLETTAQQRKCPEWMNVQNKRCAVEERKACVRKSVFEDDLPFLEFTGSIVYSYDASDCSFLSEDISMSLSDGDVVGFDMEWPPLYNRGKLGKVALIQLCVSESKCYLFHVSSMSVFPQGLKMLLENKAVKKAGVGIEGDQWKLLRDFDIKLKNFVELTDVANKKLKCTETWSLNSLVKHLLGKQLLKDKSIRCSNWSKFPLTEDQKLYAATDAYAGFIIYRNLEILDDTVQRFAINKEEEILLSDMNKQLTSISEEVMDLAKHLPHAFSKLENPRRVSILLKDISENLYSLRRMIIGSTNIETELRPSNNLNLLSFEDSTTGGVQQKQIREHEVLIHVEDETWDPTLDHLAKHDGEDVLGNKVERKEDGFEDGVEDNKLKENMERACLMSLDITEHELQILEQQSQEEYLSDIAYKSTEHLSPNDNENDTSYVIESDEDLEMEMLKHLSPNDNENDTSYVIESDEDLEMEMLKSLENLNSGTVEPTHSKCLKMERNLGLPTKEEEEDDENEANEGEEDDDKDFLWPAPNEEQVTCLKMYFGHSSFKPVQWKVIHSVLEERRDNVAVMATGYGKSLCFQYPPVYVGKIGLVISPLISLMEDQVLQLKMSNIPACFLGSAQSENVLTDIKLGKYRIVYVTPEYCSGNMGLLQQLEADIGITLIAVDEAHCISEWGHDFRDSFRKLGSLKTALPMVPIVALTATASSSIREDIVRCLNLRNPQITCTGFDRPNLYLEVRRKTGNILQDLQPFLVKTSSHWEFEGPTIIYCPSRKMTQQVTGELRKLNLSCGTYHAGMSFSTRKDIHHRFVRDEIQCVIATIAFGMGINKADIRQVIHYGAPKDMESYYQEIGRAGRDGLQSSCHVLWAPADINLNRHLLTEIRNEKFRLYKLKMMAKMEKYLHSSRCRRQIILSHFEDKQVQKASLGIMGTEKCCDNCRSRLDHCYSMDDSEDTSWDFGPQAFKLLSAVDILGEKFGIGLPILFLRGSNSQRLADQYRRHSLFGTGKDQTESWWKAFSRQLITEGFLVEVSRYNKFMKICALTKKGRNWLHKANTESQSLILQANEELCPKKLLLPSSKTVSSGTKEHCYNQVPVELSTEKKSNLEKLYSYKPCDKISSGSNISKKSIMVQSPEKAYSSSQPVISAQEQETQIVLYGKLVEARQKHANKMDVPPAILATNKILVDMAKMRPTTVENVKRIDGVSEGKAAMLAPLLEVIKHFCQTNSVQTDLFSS

| Compound | IC50 [1] | IC50 [2] |
| --- | --- | --- |
| C=CC(=O)Nc1ccccc1-c1c(CC)n(CC(=O)Nc2ccc(C(F)(F)F)cc2)c2nc(C)c(C)n2c1=O [Example 1, N-(2-(7-ethyl-2,3-dimethyl-5-oxo-8-(2-oxo-2-((4-(trifluoromethyl)phenyl)amino)ethyl)-5,8-dihydroimidazo[1,2-a]pyrimidin-6-yl)phenyl)acrylamide] | 100 to 500 nM | 100 to 500 nM |
| C=CC(=O)Nc1ccccc1-c1c(CC)n(CC(=O)Nc2ccc(C(F)(F)F)cc2)c2nc(-c3ccccc3)cn2c1=O [Example 2, N-(2-(7-Ethyl-5-oxo-8-(2-oxo-2-((4-(trifluoromethyl)phenyl)amino)ethyl)-2-phenyl-5,8-dihydroimidazo[1,2-a]pyrimidin-6-yl)phenyl)acrylamide] | 100 to 500 nM | 100 to 500 nM |
| C=CC(=O)Nc1ccccc1-c1c(CC)n(CC(=O)Nc2ccc(F)cc2)c2nc(C)c(C)n2c1=O [Example 3, N-(2-(7-Ethyl-8-(2-((4-fluorophenyl)amino)-2-oxoethyl)-2,3-dimethyl-5-oxo-5,8-dihydroimidazo[1,2-a]pyrimidin-6-yl)phenyl)acrylamide] | < 100 nM | < 100 nM |
| C=CC(=O)Nc1ccccc1-c1c(CC)n(CC(=O)Nc2ccc(F)cc2Cl)c2nc(C)c(C)n2c1=O [Example 4, N-(2-(8-(2-((2-chloro-4-fluorophenyl)amino)-2-oxoethyl)-7-ethyl-2,3-dimethyl-5-oxo-5,8-dihydroimidazo[1,2-a]pyrimidin-6-yl)phenyl)acrylamide] | 100 to 500 nM | 100 to 500 nM |
| C=CC(=O)Nc1ccccc1-c1c(CC)n(CC(=O)Nc2ccc(C(F)(F)F)cc2)c2nc(C)c(-c3ccccc3)n2c1=O [Example 5, N-(2-(7-ethyl-2-methyl-5-oxo-8-(2-oxo-2-((4-(trifluoromethyl)phenyl)amino)ethyl)-3-phenyl-5,8-dihydroimidazo[1,2-a]pyrimidin-6-yl)phenyl)acrylamide] | 100 to 500 nM | 100 to 500 nM |
| C=CC(=O)Nc1ccccc1-c1c(C)nc2n(CC(=O)Nc3ccc(F)cc3)c(CC)c(-c3ccccc3)c(=O)n12 [Example 6, N-(2-(7-Ethyl-8-(2-((4-fluorophenyl)amino)-2-oxoethyl)-2-methyl-5-oxo-6-phenyl-5,8-dihydroimidazo[1,2-a]pyrimidin-3-yl)phenyl)acrylamide] | 100 to 500 nM | 100 to 500 nM |
| C=CS(=O)(=O)Nc1ccccc1-c1c(C)nc2n(CC(=O)Nc3ccc(F)cc3)c(CC)c(-c3ccccc3)c(=O)n12 [Example 7, 2-(7-Ethyl-2-methyl-5-oxo-6-phenyl-3-(2-(vinylsulfonamido)phenyl)imidazo[1,2-a]pyrimidin-8(5H)-yl)-N-(4-fluorophenyl)acetamide] | < 100 nM | < 100 nM |
| C=CC(=O)Nc1ccccc1-c1c(C)nc2n(CC(=O)Nc3ccc(C(F)(F)F)cc3)c(CC)c(C)c(=O)n12 [Example 8, N-(2-(7-Ethyl-2,6-dimethyl-5-oxo-8-(2-oxo-2-((4-(trifluoromethyl)phenyl)amino)ethyl)-5,8-dihydroimidazo[1,2-a]pyrimidin-3-yl)phenyl)acrylamide] | < 100 nM | < 100 nM |
| C=CC(=O)Nc1ccccc1-c1c(C)nc2n(CC(=O)Nc3ccc(C(F)(F)F)cc3)c(CC)c(-c3ccc(C(=O)NCC)cc3)c(=O)n12 [Example 9, 4-(3-(2-Acrylamidophenyl)-7-ethyl-2-methyl-5-oxo-8-(2-oxo-2-((4-(trifluoromethyl)phenyl)amino)ethyl)-5,8-dihydroimidazo[1,2-a]pyrimidin-6-yl)-N-ethylbenzamide] | < 100 nM | < 100 nM |
| C=CC(=O)Nc1ccccc1-c1c(C)nc2n(CC(=O)Nc3ccc(C(F)(F)F)cc3)c(CC)c(-c3ccc(C(=O)NC)nc3)c(=O)n12 [Example 10, 5-(3-(2-Acrylamidophenyl)-7-ethyl-2-methyl-5-oxo-8-(2-oxo-2-((4-(trifluoromethyl)phenyl)amino)ethyl)-5,8-dihydroimidazo[1,2-a]pyrimidin-6-yl)-N-methylpicolinamide] | < 100 nM | < 100 nM |
